# Test results: article PMC8742467, “Therapeutical interference with the epigenetic landscape of germ cell tumors: a comparative drug study and new mechanistical insights” (Clinical Epigenetics, 2022)
# Tests used:
# [1] = test system: 2102EP-R; assay: Flow cytometry cell cycle (PI), 2102EP-R; format: cell-based, Human; settings: EC50, 16 h
# Procedure: (§1) For Annexin V/PI staining, cells were washed with Annexin V Binding Buffer before being resuspended in 70 µl Annexin V Binding Buffer and 2.5 μl Annexin V FITC-conjugate (both Miltenyi Biotec, Bergisch Gladbach, Germany) and 15 µg PI (Sigma-Aldrich, Taufkirchen, Germany) and incubated in the dark at room temperature for 15 min. 500 µl of Annexin V Binding Buffer was added before measurement. For the cell cycle analysis, cells were washed with PBS (phosphate buffered saline), fixed by ice cold 70% ethanol and stained with 2 µg/ml PI and 200 µg/ml RNaseA (Quiagen, Hilden, Germany 100 mg/ml) in PBS shortly before every measurement. At least 5 × 10^4 cells were counted and analyzed using the MACSQuant software v 2.13.0.
# [2] = test system: histone modifications in 2102EP cells; assay: Mass spectrometry analysis of histone modifications (Mod Spec); format: cell-based, Human
# Procedure: 2102EP cells were treated with the EC50 concentrations for Quisinostat, JIB-04, Chaetocin, MZ-1, LP99, PRT4165, GSK343 and DMSO as solvent control. The cells were harvested via trypsinization after 16 h. The mass spectrometric analysis of histone modifications was outsourced to the Mod Spec service by Active Motif (Carlsbad, CA, USA). Histone extraction and mass spectrometric analysis was performed as described previously. Raw data were transformed into z-scores as the input. The heatmap was generated in R using ‘pheatmap’ with default settings and provided by Active Motif.
# [3] = test system: GCT cell lines; assay: XTT cell viability assay, GCT cell lines (pre-screen / summary); format: cell-based, Human; settings: first pre-screen, SE and EC proxies TCam-2 and 2102EP, XTT
# Procedure: The […] (XTT) assays were performed as described previously. In summary, for GCT and fibroblast cell lines 5 × 10^3 cells (3 × 10^3 for UC, PCa and RCC cell lines) per 96-well were seeded and different drug concentrations (see Additional file 2: Fig. S2, Additional file 3: Fig. S3) or corresponding solvents were added to the cells the following day. For drug details see Additional file 12: Table S2 C. Each condition was analyzed in four technical replicates and EC50 values were calculated by GraphPad Prism v8.
# [4] = test system: transcriptome of 2102EP cells; assay: RNA sequencing; format: cell-based, Human; settings: 16 h
# Procedure: Transcriptome analysis has been performed as previously described at the core facility ‘Genomics & Transcriptomics’ (Prof. Dr. Karl Köhrer, Biomedical Research Center, Heinrich Heine University, Düsseldorf, Germany) and has been publicly shared via GEO (https://www.ncbi.nlm.nih.gov/geo/, GSE189472). RNA samples were quantified and measured as previously described. Statistical analyses were performed using the ‘Differential Expression in two groups’ tool (version 1.02) (Qiagen) and the resulting p values were corrected for multiple testing by false discovery rate (FDR). Accompanying PCA and heatmap were generated using Qlucore Omics Explorer 3.7 (Qlucore AB, Lund, Sweden). Values of solvent controls wereaveraged from the studies GSE189472, GSE190792 and GSE190022 [95].
# [5] = test system: DNA methylation (5mC, 5hmC) in 2102EP cells; assay: DNA slot blot (5mC, 5hmC); format: cell-based, Human; settings: 24 h
# Procedure: Purity of DNA was verified using NanoDrop 260/280 ratio and agarose gel electrophoresis. DNA was diluted in H2O to 200 ng, 100 ng and 50 ng in 200 µl per slot. Slot-Blotter device (Carl Roth GmbH + Co KG, Karlsruhe, Germany) was assembled as according to the manual. DNA was blotted onto a positively charged nylon membrane (Carl Roth GmbH + Co KG, Karlsruhe, Germany) using vacuum application. Three identical membranes were prepared. The membranes were air-dried for 15—20 min and UV-crosslinked (20 s (s), 1200 mJ/cm^2). One membrane was stained with methylene blue (0.02% methylene blue (Merck Millipore, Darmstadt, Germany) in 0.3 M sodium acetate (pH 5.2)) to validate DNA loading across the samples. The remaining two membranes were blocked in 5% milk powder in PBST for 1 h at RT. Membranes were incubated with 5mC or 5hmC antibody overnight at 4 °C. After washing, membranes were incubated with secondary antibody for 2 h at RT. Signals were detected using the ChemiDoc Imaging Systems (Bio-Rad Laboratories, Feldkirchen, Germany).
# [6] = test system: 2102EP-R; assay: Flow cytometry apoptosis (Annexin V/PI), 2102EP-R; format: cell-based, Human; settings: EC50, 16 h, compared to the parental cell line
# [7] = test system: GCT cells; assay: Flow cytometry cell cycle (PI), GCT cells; format: cell-based, Human; settings: EC50, 16 h
# Procedure: as §1
# [8] = test system: phosphorylated kinase targets in 2102EP cells; assay: Proteome Profiler Human Phospho-Kinase Array; format: cell-based; settings: 16 h
# Procedure: For the detection of phosphorylated kinase targets, the Proteome Profiler Human Phospho-Kinase Array Kit (R&D Systems, Abingdon, UK) was used according to the manufacturer’s instructions. The ChemiDoc Imaging System (Bio-Rad Laboratories, Feldkirchen, Germany) was used for detection. 2102EP cells were harvested after 16 h of treatment with the epi-drugs. Pixel density was analyzed using Fiji ImageJ 1.53c.
# [9] = test system: fibroblast control cells; assay: Flow cytometry apoptosis (Annexin V/PI), fibroblasts; format: cell-based, Human; settings: EC50, 16 h
# Procedure: as §1
# [10] = 2102EP cells, Mod Spec raw data
compound,measurement,setting,value
Cc1ncsc1-c1ccc(CNC(=O)[C@@H]2C[C@@H](O)CN2C(=O)[C@@H](NC(=O)COCCOCCOCCNC(=O)C[C@@H]2N=C(c3ccc(Cl)cc3)c3c(sc(C)c3C)-n3c(C)nnc32)C(C)(C)C)cc1 [MZ-1],cell cycle arrest in 2102EP-R,[1],induced a cell cycle arrest
same,"H1.4: K25AC, % of peptide pool",[2]; [10],0.008625%
same,"H1.4: K25ME1, % of peptide pool",[2]; [10],2.068%
same,"H1.4: K25ME2, % of peptide pool",[2]; [10],0.007907%
same,"H1.4: K25ME3, % of peptide pool",[2]; [10],0.004447%
same,"H1.4: K25UN, % of peptide pool",[2]; [10],97.9109%
same,"H2A1: K13AC, % of peptide pool",[2]; [10],0.01664%
same,"H2A1: K13UN, % of peptide pool",[2]; [10],99.9834%
same,"H2A1: K15AC, % of peptide pool",[2]; [10],0.002429%
same,"H2A1: K15UB, % of peptide pool",[2]; [10],0%
same,"H2A1: K15UN, % of peptide pool",[2]; [10],99.9976%
same,"H2A3: K13AC, % of peptide pool",[2]; [10],0.02309%
same,"H2A3: K13UN, % of peptide pool",[2]; [10],99.9769%
same,"H2A3: K15AC, % of peptide pool",[2]; [10],0.2972%
same,"H2A3: K15UB, % of peptide pool",[2]; [10],0%
same,"H2A3: K15UN, % of peptide pool",[2]; [10],99.7028%
same,"H2A: K5AC, % of peptide pool",[2]; [10],16.7692%
same,"H2A: K5UN, % of peptide pool",[2]; [10],83.2308%
same,"H2A: K9AC, % of peptide pool",[2]; [10],1.92%
same,"H2A: K9UN, % of peptide pool",[2]; [10],98.08%
same,"H2A: K36AC, % of peptide pool",[2]; [10],0.02873%
same,"H2A: K36UN, % of peptide pool",[2]; [10],99.9713%
same,"H3: K9AC, % of peptide pool",[2]; [10],0.8879%
same,"H3: K9ME1, % of peptide pool",[2]; [10],31.6276%
same,"H3: K9ME2, % of peptide pool",[2]; [10],28.3662%
same,"H3: K9ME3, % of peptide pool",[2]; [10],2.878%
same,"H3: K9UN, % of peptide pool",[2]; [10],36.24%
same,"H3: K14AC, % of peptide pool",[2]; [10],33.1456%
same,"H3: K14UN, % of peptide pool",[2]; [10],66.8544%
same,"H3: K18AC, % of peptide pool",[2]; [10],15.0157%
same,"H3: K18ME1, % of peptide pool",[2]; [10],0.179%
same,"H3: K18UN, % of peptide pool",[2]; [10],84.8052%
same,"H3: K23AC, % of peptide pool",[2]; [10],21.7451%
same,"H3: K23ME1, % of peptide pool",[2]; [10],0.008431%
same,"H3: K23UN, % of peptide pool",[2]; [10],78.2464%
same,"H3: K56AC, % of peptide pool",[2]; [10],0.06901%
same,"H3: K56ME1, % of peptide pool",[2]; [10],0.03638%
same,"H3: K56UN, % of peptide pool",[2]; [10],99.8946%
same,"H3: K64AC, % of peptide pool",[2]; [10],0.06102%
same,"H3: K64UN, % of peptide pool",[2]; [10],99.939%
same,"H3: K79AC, % of peptide pool",[2]; [10],0.05432%
same,"H3: K79ME1, % of peptide pool",[2]; [10],14.344%
same,"H3: K79ME2, % of peptide pool",[2]; [10],7.357%
same,"H3: K79ME3, % of peptide pool",[2]; [10],10.1837%
same,"H3: K79UN, % of peptide pool",[2]; [10],68.0612%
same,"H3: K122AC, % of peptide pool",[2]; [10],0.03608%
same,"H3: K122UN, % of peptide pool",[2]; [10],99.9639%
same,"H3: Q19ME1, % of peptide pool",[2]; [10],0.004515%
same,"H3: Q19UN, % of peptide pool",[2]; [10],99.9955%
same,"H3: Q55ME1, % of peptide pool",[2]; [10],0.1937%
same,"H3: Q55UN, % of peptide pool",[2]; [10],99.8063%
same,"H3: R42ME2, % of peptide pool",[2]; [10],1.387%
same,"H3: R42UN, % of peptide pool",[2]; [10],98.6131%
same,"H3: R49ME2, % of peptide pool",[2]; [10],3.092%
same,"H3: R49UN, % of peptide pool",[2]; [10],96.9084%
same,"H3R2UN: K4AC, % of peptide pool",[2]; [10],0.04633%
same,"H3R2UN: K4ME1, % of peptide pool",[2]; [10],16.637%
same,"H3R2UN: K4ME2, % of peptide pool",[2]; [10],0.2165%
same,"H3R2UN: K4ME3, % of peptide pool",[2]; [10],0.04192%
same,"H3R2UN: K4UN, % of peptide pool",[2]; [10],83.0582%
same,"H3R2UN: Q5ME1, % of peptide pool",[2]; [10],0.08148%
same,"H3R2UN: Q5UN, % of peptide pool",[2]; [10],99.9185%
same,"H3.1: K27AC, % of peptide pool",[2]; [10],2.915%
same,"H3.1: K27ME1, % of peptide pool",[2]; [10],46.4162%
same,"H3.1: K27ME2, % of peptide pool",[2]; [10],19.546%
same,"H3.1: K27ME3, % of peptide pool",[2]; [10],2.363%
same,"H3.1: K27UN, % of peptide pool",[2]; [10],28.7602%
same,"H3.1: K36AC, % of peptide pool",[2]; [10],0.09043%
same,"H3.1: K36ME1, % of peptide pool",[2]; [10],14.1558%
same,"H3.1: K36ME2, % of peptide pool",[2]; [10],48.8646%
same,"H3.1: K36ME3, % of peptide pool",[2]; [10],20.4408%
same,"H3.1: K36UN, % of peptide pool",[2]; [10],16.4484%
same,"H3.3: K27AC, % of peptide pool",[2]; [10],6.233%
same,"H3.3: K27M, % of peptide pool",[2]; [10],0%
same,"H3.3: K27ME1, % of peptide pool",[2]; [10],47.8396%
same,"H3.3: K27ME2, % of peptide pool",[2]; [10],15.5733%
same,"H3.3: K27ME3, % of peptide pool",[2]; [10],3.5424%
same,"H3.3: K27UN, % of peptide pool",[2]; [10],26.8119%
same,"H3.3: K36AC, % of peptide pool",[2]; [10],1.864%
same,"H3.3: K36ME1, % of peptide pool",[2]; [10],12.2128%
same,"H3.3: K36ME2, % of peptide pool",[2]; [10],53.2755%
same,"H3.3: K36ME3, % of peptide pool",[2]; [10],19.9611%
same,"H3.3: K36UN, % of peptide pool",[2]; [10],12.6864%
same,"H4: K5AC, % of peptide pool",[2]; [10],7.836%
same,"H4: K5UN, % of peptide pool",[2]; [10],92.164%
same,"H4: K8AC, % of peptide pool",[2]; [10],12.4074%
same,"H4: K8UN, % of peptide pool",[2]; [10],87.5926%
same,"H4: K12AC, % of peptide pool","[2]; 2102EP cells, Mod Spec raw data, histone H4 K12 acetylated",7.206 % of peptide pool
same,"H4: K12UN, % of peptide pool","[2]; 2102EP cells, Mod Spec raw data, histone H4 K12 unmodified",92.7945 % of peptide pool
same,"H4: K16AC, % of peptide pool","[2]; 2102EP cells, Mod Spec raw data, histone H4 K16 acetylated",49.1827 % of peptide pool
same,"H4: K16UN, % of peptide pool","[2]; 2102EP cells, Mod Spec raw data, histone H4 K16 unmodified",50.8173 % of peptide pool
same,"H4: K20AC, % of peptide pool","[2]; 2102EP cells, Mod Spec raw data, histone H4 K20 acetylated",21.1654 % of peptide pool
same,"H4: K20ME2, % of peptide pool","[2]; 2102EP cells, Mod Spec raw data, histone H4 K20 dimethylated",54.2158 % of peptide pool
same,"H4: K20ME1, % of peptide pool","[2]; 2102EP cells, Mod Spec raw data, histone H4 K20 monomethylated",4.396 % of peptide pool
same,"H4: K20ME3, % of peptide pool","[2]; 2102EP cells, Mod Spec raw data, histone H4 K20 trimethylated",2.467 % of peptide pool
same,"H4: K20UN, % of peptide pool","[2]; 2102EP cells, Mod Spec raw data, histone H4 K20 unmodified",17.7556 % of peptide pool
same,change of histone modifications of the expected mode of action (Mod Spec),"[2]; 2102EP, EC50, 16 h, vs solvent control",increase in H3K64ac and H2A3K15ac
same,EC50 / effective concentration in words,[3],nanomolar range
same,EIF3CL Log2 fold change vs. DMSO,"[4]; sorted data log2>±1.5, FDR p<0.05",-2.31
same,A1BG Log2 fold change vs. DMSO,[4]; unsorted data,-0.0752
same,A1CF Log2 fold change vs. DMSO,[4]; unsorted data,-1.99
same,A2M Log2 fold change vs. DMSO,[4]; unsorted data,0.0948
same,5hmC levels increase compared to solvent control,[5],19%
same,5mC levels compared to solvent control,[5]; solvent control set to 100%,70%
same,apoptosis induction in 2102EP-R,[6],did not induce apoptosis
same,cell cycle phase accumulation in GCT cells,[7],accumulated in the G0/G1 phase
same,"CREB, STAT3 and STAT5 phosphorylation and total levels of β-Catenin and HSP60",[8],decreased
same,ERK1/2 phosphorylation,[8],decreased
same,apoptosis induction in fibroblast control cells,[9],only a weak apoptosis induction
